Experimental data taken from patent US20100267561A1, “HERBICIDAL PYRIDAZINONE DERIVATIVES” (priority 2007, published 2010).
Where two headings read alike, the source gives them in different places.

How the values were obtained:
Assay in all cases: Test B pre-/postemergence plant response
Assay type in all cases: in vivo
wild oat (Avena fatua) = conditions: Avena fatua, read-out: Plant response rating, Oat, Wild; for pest or weed control at 31 g/ha: 31 g ai/ha, 100 complete control; for pest or weed control at 62 g/ha: 62 g ai/ha; for pest or weed control at 62 g/ha / pest or weed control at 125 g/ha / pest or weed control at 250 g/ha: scale 0 to 100; for pest or weed control at 125 g/ha: 125 g ai/ha; for pest or weed control at 250 g/ha: 250 g ai/ha
In short: (§1)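 Visual scoring from 0 (no effect) to 100 (complete control) against untreated controls was done 13 to 15 days after greenhouse treatment. Chemicals were formulated in a surfactant-containing non-phytotoxic solvent and applied to soil preemergence or to 1- to 4-leaf (2-18 cm) plants postemergence.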

[1] = tested on: blackgrass (Alopecurus myosuroides); conditions: for pest or weed control at 31 g/ha: 31 g ai/ha, 100 complete control; for pest or weed control at 62 g/ha: 62 g ai/ha; for pest or weed control at 125 g/ha: 125 g ai/ha
In short: as §1

[2] = tested on: giant foxtail (Setaria faberii); conditions: Setaria faberi, read-out: Plant response rating, Foxtail, Giant; for pest or weed control at 31 g/ha: 31 g ai/ha, 100 complete control; for pest or weed control at 62 g/ha: 62 g ai/ha; for pest or weed control at 62 g/ha / pest or weed control at 125 g/ha / pest or weed control at 250 g/ha: scale 0 to 100; for pest or weed control at 125 g/ha: 125 g ai/ha; for pest or weed control at 250 g/ha: 250 g ai/ha
In short: as §1

[3] = tested on: goosegrass (Eleusine indica); conditions: Eleusine indica, read-out: Plant response rating, Goosegrass; for pest or weed control at 31 g/ha: 31 g ai/ha, 100 complete control; for pest or weed control at 62 g/ha: 62 g ai/ha; for pest or weed control at 62 g/ha / pest or weed control at 125 g/ha / pest or weed control at 250 g/ha: scale 0 to 100; for pest or weed control at 125 g/ha: 125 g ai/ha; for pest or weed control at 250 g/ha: 250 g ai/ha
In short: as §1

[4] = tested on: lambsquarters (Chenopodium album); conditions: Chenopodium album, read-out: Plant response rating, Lambsquarters; for pest or weed control at 31 g/ha: 31 g ai/ha, 100 complete control; for pest or weed control at 62 g/ha: 62 g ai/ha; for pest or weed control at 62 g/ha / pest or weed control at 125 g/ha / pest or weed control at 250 g/ha: scale 0 to 100; for pest or weed control at 125 g/ha: 125 g ai/ha; for pest or weed control at 250 g/ha: 250 g ai/ha
In short: as §1

[5] = tested on: common ragweed (Ambrosia elation); conditions: Ambrosia, read-out: Plant response rating, Ragweed; for pest or weed control at 31 g/ha: 31 g ai/ha, 100 complete control; for pest or weed control at 62 g/ha: 62 g ai/ha; for pest or weed control at 62 g/ha / pest or weed control at 125 g/ha / pest or weed control at 250 g/ha: scale 0 to 100; for pest or weed control at 125 g/ha: 125 g ai/ha; for pest or weed control at 250 g/ha: 250 g ai/ha
In short: as §1

[6] = tested on: common (oilseed) sunflower (Helianthus annuus); conditions: Helianthus annuus, pre-emergence, Preemergence, read-out: Plant response rating, Sunflower
In short: as §1

[7] = post-emergence, Postemergence, scale 0 to 100, 0 no effect
[8] = pre-emergence, Preemergence, 0 to 100 scale, 0 no effect
[9] = Alopecurus myosuroides, post-emergence, Postemergence, scale 0 to 100, read-out: Plant response rating, Blackgrass
[10] = Alopecurus myosuroides, pre-emergence, Preemergence, scale 0 to 100, read-out: Plant response rating, Blackgrass

Cc1cc(-c2ccc(C(F)(F)F)cc2)nn1-c1c(O)cnn(C)c1=O [Compound 1, 5-hydroxy-2-methyl-4-[5-methyl-3-[4-(trifluoromethyl)phenyl]-1H-pyrazol-1-yl]-3(2H)-pyridazinone]
pest or weed control at 31 g/ha (wild oat (Avena fatua); [7]): 90% | pest or weed control at 62 g/ha (wild oat (Avena fatua); post-emergence, Postemergence): 100% | pest or weed control at 125 g/ha (wild oat (Avena fatua); post-emergence, Postemergence): 100% | pest or weed control at 250 g/ha (wild oat (Avena fatua); post-emergence, Postemergence): 100% | pest or weed control at 31 g/ha (wild oat (Avena fatua); [8]): 60% | pest or weed control at 62 g/ha (wild oat (Avena fatua); pre-emergence, Preemergence): 85% | pest or weed control at 125 g/ha (wild oat (Avena fatua); pre-emergence, Preemergence): 90% | pest or weed control at 250 g/ha (wild oat (Avena fatua); pre-emergence, Preemergence): 98% | Blackgrass plant response rating ([1]; 250 g ai/ha, preemergence, 0-100 scale): 100 | pest or weed control at 31 g/ha ([1]; Alopecurus myosuroides, post-emergence, Postemergence, scale 0 to 100, 0 no effect, read-out: Plant response rating, Blackgrass): 20% | pest or weed control at 62 g/ha [1, 9]: 90% | pest or weed control at 125 g/ha [1, 9]: 100% | pest or weed control at 250 g/ha ([1]; Alopecurus myosuroides, post-emergence, Postemergence, 250 g ai/ha, scale 0 to 100, read-out: Plant response rating, Blackgrass): 100% | pest or weed control at 31 g/ha ([1]; Alopecurus myosuroides, pre-emergence, Preemergence, 0 to 100 scale, 0 no effect, read-out: Plant response rating, Blackgrass): 100% | pest or weed control at 62 g/ha [1, 10]: 100% | pest or weed control at 125 g/ha [1, 10]: 100% | pest or weed control at 31 g/ha [2, 7]: 100% | pest or weed control at 62 g/ha ([2]; post-emergence, Postemergence): 100% | pest or weed control at 125 g/ha ([2]; post-emergence, Postemergence): 100% | pest or weed control at 250 g/ha ([2]; post-emergence, Postemergence): 100% | pest or weed control at 31 g/ha [2, 8]: 100% | pest or weed control at 62 g/ha ([2]; pre-emergence, Preemergence): 100% | pest or weed control at 125 g/ha ([2]; pre-emergence, Preemergence): 100% | pest or weed control at 250 g/ha ([2]; pre-emergence, Preemergence): 100% | pest or weed control at 31 g/ha [3, 7]: 30% | pest or weed control at 62 g/ha ([3]; post-emergence, Postemergence): 30% | pest or weed control at 125 g/ha ([3]; post-emergence, Postemergence): 50% | pest or weed control at 250 g/ha ([3]; post-emergence, Postemergence): 85% | pest or weed control at 31 g/ha [3, 8]: 50% | pest or weed control at 62 g/ha ([3]; pre-emergence, Preemergence): 50% | pest or weed control at 125 g/ha ([3]; pre-emergence, Preemergence): 100% | pest or weed control at 250 g/ha ([3]; pre-emergence, Preemergence): 100% | pest or weed control at 31 g/ha [4, 7]: 0% | pest or weed control at 62 g/ha ([4]; post-emergence, Postemergence): 0% | pest or weed control at 125 g/ha ([4]; post-emergence, Postemergence): 40% | pest or weed control at 250 g/ha ([4]; post-emergence, Postemergence): 50% | pest or weed control at 31 g/ha [4, 8]: 0% | pest or weed control at 62 g/ha ([4]; pre-emergence, Preemergence): 0% | pest or weed control at 125 g/ha ([4]; pre-emergence, Preemergence): 0% | pest or weed control at 250 g/ha ([4]; pre-emergence, Preemergence): 0% | pest or weed control at 31 g/ha [5, 7]: 0% | pest or weed control at 62 g/ha ([5]; post-emergence, Postemergence): 0% | pest or weed control at 125 g/ha ([5]; post-emergence, Postemergence): 50% | pest or weed control at 250 g/ha ([5]; post-emergence, Postemergence): 55% | pest or weed control at 31 g/ha [5, 8]: 0% | pest or weed control at 62 g/ha ([5]; pre-emergence, Preemergence): 0% | pest or weed control at 125 g/ha ([5]; pre-emergence, Preemergence): 0% | pest or weed control at 250 g/ha ([5]; pre-emergence, Preemergence): 0% | pest or weed control at 31 g/ha ([6]; 31 g ai/ha, 0 to 100 scale, 0 no effect, 100 complete control): 0% | pest or weed control at 62 g/ha ([6]; 62 g ai/ha, scale 0 to 100): 0% | pest or weed control at 125 g/ha ([6]; 125 g ai/ha, scale 0 to 100): 0%
